According to patent US12263248B2, “Compounds and compositions for intracellular delivery of therapeutic agents” (ModernaTX, Inc., priority 2018, dated 2025):

Assays:
[1] = Lipid clearance: lipid level in mouse liver tissue (LC-MS/MS); assay type: in vivo; details: Table 3E, mouse liver
Protocol: Quantification of Lipid by LC-MS/MS: Liver samples were homogenized following addition of 19 eq. (w/v) of water (DF=20). Protein was precipitated and analyzed against calibration standards prepared in matching blank. Chromatographic separation and quantification was accomplished with a LC-MS/MS System. Samples were injected and separated via HPLC A triple-quadrupole MS/MS system operated in positive ion mode was used for signal detection.

[2] = Particle size and polydispersity index of nanoparticle compositions (Zetasizer Nano ZS); assay type: physicochemical
Method in brief: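 Values are size and PDI readings from a Zetasizer Nano ZS. Measurements are taken in 1×PBS; zeta potential, by contrast, uses 15 mM PBS.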

hEPO mRNA [3] = experiment: hEPO expression after intravenous administration to rats; assay type: in vivo, rat; details: Table 19B; for Lipid/MC3 ([hEPO] ratio) / Lipid/MC3 AUC: relative to MC3; for [hEPO]: species, dose and time not given
Protocol: The expression of hEPO and cytokine induction in rats intravenously administered a nanoparticle composition at a dose of 2.0 mpk was measured at 6 h.
(§1) The expression of hEPO in rats intravenously administered a nanoparticle composition at a dose of 0.2 mpk or 2.0 mpk was measured at 6 hours. Table 16 summarize the ratio of hEPO expression levels using various nanoparticle compositions as compared to the hEPO expression level using MC3 formulation and the lipid levels in the liver measured 48 hours after administration, as described above. Tables 17 and 18 summarize the lipid levels in the liver and spleen measured 48 hours after administration of Compounds 28, 33, 53, and 54. Liver and spleen levels represent the average values calculated for 3 rats in each group. As is shown in Tables 17 and 18, less than 10% of Compounds 28, 33, 53, and 54 remained in the liver after 48 hours, while greater than 60% of MC3 remained.
The expression of hEPO induced by intravenous administration to rats of nanoparticle compositions at various doses was measured at 2, 4, 6, 8, 24, and 48 hour time points. FIGS. 3-6 respectively summarize the hEPO expression measured upon intravenous administration of formulations including Compounds 26, 18, 25, and MC3 to rat at various doses. The lipid levels of Compound 26 in the liver after 48 hours were about 19%.
(§2) 005781 The expression of hEPO and lipid levels in the liver and spleen in rats intravenously administered a nanoparticle composition at a dose of 0.2 mpk was measured at various time points. Compounds 18 and 25 were selected for comparison with MC3. Lipids were formulated according to the standard MC3 formulation described above. Rats were administered intravenously a single 0.2 mpk dose and expression monitored at 0.25, 0.5, 1, 2, 4, 8, 24, and 48 hours after administration.
(§3) Blood collection and analysis for hEPO. Blood was collected from mice or rats via the tail vein and hEPO concentrations were determined using a hEPO ELISA assay.

[4] = Residual lipid levels in rat liver and spleen (UPLC-MS); assay type: in vivo; details: Table 19B, liver, 24 h
Protocol: At 48 h liver tissue was harvested for lipid quantification. To pre-weighed tissues, Milli-Q water was added (900 μL water per 100 mg tissue). Tissues were homogenized using an Omni probe homogenizer until uniform. 50 μL of samples and matrix calibration standards were aliquoted into a 96-well plate. 50 μL of blank matrix for matrix blanks and control blanks were aliquoted. 400 μL is spiking solution were manually added to all samples except matrix blanks. 400 μL of 50:50 ACN:IPA were manually added to matrix blanks. The plate was covered and the samples vortexed and centrifuged for 5 minutes at >3000 rpm. 200 μL of the samples were transferred into a clean 96-well plate for analysis. Samples were analyzed on a Waters Acquity UPLC using a Higgins Analytical Clipeus C8 column ([…], 30×2.1 mm) and a gradient of either 70-95% or 60-95% (Mobile Phase A: 5 mM ammonium formate in 50:50:1 H2O:MeOH:formic acid; Mobile Phase B: 5 mM ammonium formate in 100:1 MeOH:formic acid) over 1.3 min at 1.2 mL/min (column temperature 55° C.). Detection was based on electrospray ionization (ESI) in positive mode using a Sciex API5500 Mass Spectrometer.
as §1, §2

luciferase (Luc) mRNA [5] = experiment: Luc expression, whole body bioluminescence after intravenous administration to mice; assay type: in vivo; details: Table 3E; intravenous
Method in brief: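 Bioluminescence, read as region-of-interest total flux at 3, 6 and 24 h, followed a single 0.5 mg/kg intravenous dose of Luc mRNA-loaded nanoparticles in mice (n=6). Luciferin substrate (200 μL, 15 mg/mL in PBS) was injected intraperitoneally into CD-1 mice 15 minutes ahead of each imaging point.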

[6] = Encapsulation efficiency of RNA (QUANT-IT RIBOGREEN RNA assay); assay type: physicochemical
Method in brief: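 RiboGreen fluorescence (ex ~480, em ~520 nm) compared between intact samples and Triton X-100-lysed samples after 15 min at 37 °C in TE buffer, pH 7.5. Percent free RNA is the blank-corrected intact/disrupted ratio.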

[7] = Apparent (surface) pKa of the LNP formulation (TNS assay); assay type: physicochemical; details: for pKa: Table 1A; for App. pKa: Table 3F
Method in brief: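 Fluorescence of TNS probe added to LNP samples (mRNA 0.04 mg/mL) was read across 21 buffers of pH about 3-12, triplicate per pH. The inflection point of the sigmoidal fluorescence-vs-pH curve, […], gives apparent pKa; method validated in 1× PBS and Tris/sucrose buffer.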

luciferase (Luc) mRNA [8] = experiment: Luc expression (total flux) after intramuscular administration; assay type: in vivo, mice; details: for Novel lipid/MC3 expression ratio, 6 hr. time point, i.m. Luc: intramuscular, relative to MC3 formulation; for i.m. Lipid/MC3 0.01 mpk, Luc, 6 h: Table 3B
Method in brief: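 Total-flux luciferase signal in mice after one intramuscular injection. Nanoparticle formulations contained modified Luc mRNA, either alone or co-dosed with H10 mRNA (e.g., 0.0005 or 0.005 mpk of each), giving 0.001 or 0.01 mpk.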

hEPO mRNA [9] = experiment: hEPO expression after intramuscular administration to mice; assay type: in vivo; details: Table 3I, hEPO
Protocol: The expression of hEPO and cytokine induction in mice intravenously administered a nanoparticle composition at a dose of 0.5 mpk were measured at 3, 6, and 24 hours. […] The expression of hEPO in mice intramuscularly administered a nanoparticle composition from Table 1B at a dose of 0.01 mpk were measured at 3, 6, and 24 hours.
as §3

[10] = Table 1A, lipid:DSPC:cholesterol:PEG-DMG 50:10:38.5:1.5 mol %
[11] = Table 1B, formulated with hEPO mRNA

CCCCCCCCC(CCCCCCCC)OC(=O)CCCCCCCN(CCO)CCCCCCCC(=O)OCC(C)CCCCCCC (centres unmarked) [Compound 184, Heptadecan-9-yl 8-((2-hydroxyethyl)(8-((2-methylnonyl)oxy)-8-oxooctyl)amino)octanoate]
% Remaining dose at 6 h ([1]; 6 h): 0.282%
% Remaining dose at 24 h ([1]; 24 h): 0%
PDI ([2]; Table 1A): 0.13
Size (nm) [2, 10]: 77.2 nm
PDI [2, 11]: 0.16
Size (nm) [2, 11]: 85.8 nm
AUC (hEPO) (hEPO mRNA [3]): 1.41e+08 pg·h/mL
Lipid/MC3 ([hEPO] ratio) (hEPO mRNA [3]): 7.13
Lipid/MC3 AUC (hEPO mRNA [3]): 7.64
[hEPO] (hEPO mRNA [3]): 1.05e+07 pg/mL
% dose remaining, liver, 24 h [4]: 0.04%
6 h BLI Lipid/MC3 (luciferase (Luc) mRNA [5]): 7.46
EE (%) ([6]; Table 1A): 94.2%
EE (%) [6, 11]: 96.5%
pKa [7]: 6.47

CCCCCCCCCOC(=O)CCCCCCCN(CCCCCCCC(=O)OC(CCCCCCCC)CCCCCCCC)CCCNC(=O)COC [Compound 178, Heptadecan-9-yl 8-((3-(2-methoxyacetamido)propyl)(8-(nonyloxy)-8-oxooctyl)amino)octanoate]
Novel lipid/MC3 expression ratio, 6 hr. time point, i.m. Luc (luciferase (Luc) mRNA [8]): 7.14
PDI ([2]; Table 1A): 0.12
Size (nm) [2, 10]: 104.2 nm
EE (%) ([6]; Table 1A): 94.7%
pKa [7]: 6.90
Lipid/MC3 6 h timepoint (hEPO mRNA [9]): 10.4
Lipid/MC3 AUC (hEPO mRNA [9]): 9.3

CCCCCCCCCOC(=O)CCCCCCCN(CCCCCCCC(=O)OC(CCCCCCCC)CCCCCCCC)CCCN/C(=N/[N+](=O)[O-])NC [Compound 200, Heptadecan-9-yl (E)-8-((3-(3-methyl-2-nitroguanidino)propyl)(8-(nonyloxy)-8-oxooctyl)amino)octanoate]
Novel lipid/MC3 expression ratio, 6 hr. time point, i.m. Luc (luciferase (Luc) mRNA [8]): 8.11
PDI ([2]; Table 1A): 0.15
Size (nm) [2, 10]: 76.2 nm
PDI [2, 11]: 0.19
Size (nm) [2, 11]: 95.3 nm
AUC (hEPO) (hEPO mRNA [3]): 2.4e+07 pg·h/mL
Lipid/MC3 AUC (hEPO mRNA [3]): 1.30
[hEPO] (hEPO mRNA [3]): 1.72e+06 pg/mL
% dose remaining, liver, 24 h [4]: 0.36%
EE (%) ([6]; Table 1A): 97.65%
EE (%) [6, 11]: 97.3%
Lipid/MC3 6 h timepoint (hEPO mRNA [9]): 2.6
Lipid/MC3 AUC (hEPO mRNA [9]): 2.7

CCCCCCCCCOC(=O)CCCCCCCN(CCCCCCCC(=O)OC(CCCCCCCC)CCCCCCCC)CCCNc1c(N(C)C)c(=O)c1=O [Compound 169, Heptadecan-9-yl 8-((3-((2-(dimethylamino)-3,4-dioxocyclobut-1-en-1-yl)amino)propyl)(8-(nonyloxy)-8-oxooctyl)amino)octanoate]
i.m. Lipid/MC3 0.01 mpk, Luc, 6 h (luciferase (Luc) mRNA [8]): 3.3
PDI ([2]; Table 1A): 0.17
Size (nm) [2, 10]: 87.4 nm
EE (%) ([6]; Table 1A): 99.4%
pKa [7]: 6.77.
App. pKa [7]: 7.63
Lipid/MC3 6 h timepoint (hEPO mRNA [9]): 4.6
Lipid/MC3 AUC (hEPO mRNA [9]): 4.7

CCCCCCCCCOC(=O)CCCCCCCN(CCCCCCCC(=O)OC(CCCCCCCC)CCCCCCCC)CCCN/C(=C/[N+](=O)[O-])NC [Compound 170, Heptadecan-9-yl (E)-8-((3-((1-(methylamino)-2-nitrovinyl)amino)propyl)(8-(nonyloxy)-8-oxooctyl)amino)octanoate]
i.m. Lipid/MC3 0.01 mpk, Luc, 6 h (luciferase (Luc) mRNA [8]): 5.3
PDI ([2]; Table 1A): 0.18
Size (nm) [2, 10]: 96.0 nm
EE (%) ([6]; Table 1A): 96.7%
pKa [7]: 6.31
App. pKa [7]: 6.60
Lipid/MC3 6 h timepoint (hEPO mRNA [9]): 5.9
Lipid/MC3 AUC (hEPO mRNA [9]): 5.7

CCCCCCCCCOC(=O)CCCCCCCN(CCCCCCCC(=O)OC(CCCCCCCC)CCCCCCCC)CCCNc1c(NC)c(=O)c1=O [Compound 182, Heptadecan-9-yl 8-((3-((2-(methylamino)-3,4-dioxocyclobut-1-en-1-yl)amino)propyl)(8-(nonyloxy)-8-oxooctyl)amino)octanoate]
PDI ([2]; Table 1A): 0.14
Size (nm) [2, 10]: 84.4 nm
EE (%) ([6]; Table 1A): 99.0%
pKa [7]: 6.48
Lipid/MC3 6 h timepoint (hEPO mRNA [9]): 1.6
Lipid/MC3 AUC (hEPO mRNA [9]): 1.2

CCCCCCCCCOC(=O)CCCCCCCN(CCCCCCCC(=O)OC(CCCCCCCC)CCCCCCCC)CCCC(N)=O [Compound 243, Heptadecan-9-yl 8-((4-amino-4-oxobutyl)(8-(nonyloxy)-8-oxooctyl)amino)octanoate]
PDI [2, 11]: 0.35
Size (nm) [2, 11]: 90.6 nm
AUC (hEPO) (hEPO mRNA [3]): 445000 pg·h/mL
Lipid/MC3 ([hEPO] ratio) (hEPO mRNA [3]): 0.02755
Lipid/MC3 AUC (hEPO mRNA [3]): 0.02
[hEPO] (hEPO mRNA [3]): 40600 pg/mL
% dose remaining, liver, 24 h [4]: 0.05%
EE (%) [6, 11]: 99.4%

CCCCCCCCCOC(=O)CCCCCCCN(CCCCCCCC(=O)OC(CCCCCCCC)CCCCCCCC)CCCNC(=O)C(C)C [Compound 194, Heptadecan-9-yl 8-((3-isobutyramidopropyl)(8-(nonyloxy)-8-oxooctyl)amino)octanoate]
Lipid/MC3 6 h timepoint (hEPO mRNA [9]): 5.5
Lipid/MC3 AUC (hEPO mRNA [9]): 6.2

CCCCCCCCC(CCCCCCCC)OC(=O)CCCCCCCN(CCO)CCCCCC(=O)OC(C)CCCCCCCCOC(C)=O (centres unmarked) [Compound 235, Heptadecan-9-yl 8-((6-((10-acetoxydecan-2-yl)oxy)-6-oxohexyl)(2-hydroxyethyl)amino)octanoate]
PDI [2, 11]: 0.24
Size (nm) [2, 11]: 228 nm
AUC (hEPO) (hEPO mRNA [3]): 1.71e+07 pg·h/mL
Lipid/MC3 ([hEPO] ratio) (hEPO mRNA [3]): 0.8601
Lipid/MC3 AUC (hEPO mRNA [3]): 0.93
[hEPO] (hEPO mRNA [3]): 1.27e+06 pg/mL
% dose remaining, liver, 24 h [4]: 0.06%
EE (%) [6, 11]: 40.9%

CCCCCCCCCOC(=O)CCCCCCCN(CCCCCCCC(=O)OC(CCCCCCCC)CCCCCCCC)CCNC(C)=O [Compound 244, Heptadecan-9-yl 8-((2-acetamidoethyl)(8-(nonyloxy)-8-oxooctyl)amino)octanoate]
Lipid/MC3 6 h timepoint (hEPO mRNA [9]): 0.4
Lipid/MC3 AUC (hEPO mRNA [9]): 0.4
